{"source": "patent US6346620B1", "about": "“Methods for preparation of 2-(4-(4-(4,5-dichloro-2-methylimidazol-1-yl)butyl)-1-piperazinyl)-5-fluoropyrimidine and salts thereof” (Laboratories del Dr. Esteve S.A., priority 1997, dated 2002)", "key": {"[1]": {"test_system": "nausea caused by the movement (travel sickness)", "assay": "Travel sickness in the shrew (Suncus murinus)", "assay_type": "in vivo", "conditions": "for Number of episodes of nausea/vomiting: motion 1 hertz 4 cm for 20 min", "source_text": "The compound of Example 3 is studied with regard to its effect on travel sickness, (vertigo) induced in, Suncus murinus according to the method described by N. Matsuki et al. (“Mechanisms and Control of Emesis”, John Libbey Emotex, 1992, 233, 323-329). Males of the species Suncus murinus weighing 58-72 grams are housed in groups of 3 and are allowed free access to solid food and to water. One hour before the test, they are presented with cat food in their housing cage. At the beginning of the test, the animals receive the treatment with the test product by the i.p. route. After 30 minutes, they are placed individually in the test boxes (15×15×10 cm). The boxes are connected to a motor which displaces them over several wheels forward and backward with a frequency which induces nausea in them (travel sickness). This frequency is 1 hertz with an amplitude of displacement of 4 cm. The animals are left in the test boxes for 30 minutes, in order for them to become used to their surroundings, and then the active movement of the cages is begun for 20 minutes, in order to determine the presence or the absence of nausea (without passage of matter from the digestive tract) and of vomiting (with passage of matter from the digestive tract)."}, "[2]": {"test_system": "nausea induced by copper sulfate", "assay": "Antiemetic activity: nausea/vomiting induced by copper sulfate in ferrets", "assay_type": "in vivo", "conditions": "ferret; for Number of episodes of nausea/vomiting: copper sulfate 100 mg/kg intragastric, 30 min observation", "protocol": "(§1) The compounds obtained in the invention are studied with regard to their effects on nausea in ferrets according to a method described by Costall et al. (Neuropharmacology, 1986, 25, 959-961). Ferrets of both sexes (0.7-1.4 kg) are individually housed at 21±1° C. and fed normally. The compound of the example or a vehicle is subsequently administered to them subcutaneously as pretreatment 15 minutes before the administration of copper sulfate (CuSO4.5H2O; 100 mg/kg by the intragastric route) or cisplatin (10 mg/kg i.v. by means of a permanent jugular cannula). The animals are observed at the beginning of vomiting and then for 30 minutes (copper sulfate) or 240 minutes (cisplatin). Vomiting is characterized by rhythmic abdominal contractions, either associated with the expulsion of solid or liquid matter (vomit) or not associated with the passage of matter via the mouth (nausea). The number of episodes and nausea or vomiting are recorded."}, "gastric acid secretion": {"test_system": "gastric acid secretion", "assay": "Inhibitory activity with regard to gastric acid secretion (Shay procedure)", "assay_type": "in vivo", "conditions": "Rattus norvegicus, intraduodenal; male Wistar rats, pylorus ligation, i.d., 2 hours; read-out: ED50 (inhibition of gastric acid secretion)", "protocol": "This activity is determined by means of the Shay procedure (H. Shay et al., Gastroenterology, 1945, 5, 43; Visscher et al., J. Pharmac. Exp. Ther., 1954, 110, 188).\nMale Wistar rats weighing from 200 to 250 g are used in this test, which rats are deprived of food up to the day preceding the test, with free access to water. Batches of 4 animals each are used, at least.\nThe rats are anesthetized with ethyl ether, a laparotomy is performed on them and their pylori are tied, and then an abdominal incision is made. The products are administered intraduodenally (i.d.) before suturing the abdominal incision. The dose administered in the first test is 40 mg/kg and then the median effective dose (ED50) is determined. The vehicle used is gum arabic at 5% w/v in doubly-distilled water.\nTwo hours after ligating the pylori, the rats are sacrificed by prolonged anesthesia with ethyl ether and the volume of gastric juice is measured. The total acidity is determined by means of a pH meter equipped with an automatic burette. For each product and for each dose tested, the percentage of inhibition of gastric acid secretion is determined with respect to a reference batch."}, "5HT1A serotonin receptor": {"biological_target": "T1, 5HT1A serotonin receptor (Rattus norvegicus, UniProt P19327)", "T1 construct": "A rat hippocampus homogenate is used; from tissue; host or cells: rat hippocampus homogenate", "T1 sequence (P19327 1-422)": "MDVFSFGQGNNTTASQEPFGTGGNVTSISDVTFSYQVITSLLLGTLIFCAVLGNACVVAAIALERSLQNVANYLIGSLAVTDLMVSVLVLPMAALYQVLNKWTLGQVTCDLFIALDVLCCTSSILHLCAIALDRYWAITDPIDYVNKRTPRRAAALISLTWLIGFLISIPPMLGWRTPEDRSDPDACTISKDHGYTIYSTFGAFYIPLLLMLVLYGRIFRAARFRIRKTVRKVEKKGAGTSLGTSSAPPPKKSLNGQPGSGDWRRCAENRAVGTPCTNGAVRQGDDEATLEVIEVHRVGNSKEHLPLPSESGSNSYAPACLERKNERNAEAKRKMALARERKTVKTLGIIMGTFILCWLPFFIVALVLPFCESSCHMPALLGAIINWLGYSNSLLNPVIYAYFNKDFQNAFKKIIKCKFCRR", "assay": "Binding to the 5HT1A serotonin receptor (rat hippocampus homogenate, [3H]-8-HO-DPAT)", "conditions": "15 minutes at 37° C., read-out: Ki (inhibition constant)", "protocol": "A rat hippocampus homogenate is used, a modification of the method of S. J. Peroutka (Neurochem., 1986, 47, 529) being followed. [^3H]-8-HO-DPAT is used as radioligand and serotonin is used to measure the nonspecific binding. The incubation time is 15 minutes at a temperature of 37° C. The radioligand bonded to the protein is separated by filtration through glass fiber filters and the radioactivity retained on the filter is determined by liquid scintillation. The inhibitIon constant (Ki, nM) is calculated by nonlinear regression analysis using the EBDA/LIGAND program (Munson and Rodbard, Analytical Biochemistry, 1980, 107, 220)."}, "[3]": {"test_system": "nausea induced by cisplatin", "assay": "Antiemetic activity: nausea/vomiting induced by cisplatin in ferrets", "assay_type": "in vivo", "conditions": "ferret; for Number of episodes of nausea/vomiting: cisplatin 10 mg/kg i.v., 240 min observation", "protocol": "as §1"}, "[4]": {"test_system": "conditioned avoidance response", "assay": "Test of conditioned avoidance response (C.A.R.)", "assay_type": "in vivo", "conditions": "Rattus norvegicus, po; male Wistar rats, p.o., 45 minutes before the study; read-out: ED50 (suppression of conditioned avoidance response)", "protocol": "In this test, use is made of male Wistar rats weighing 200 g trained to leap a barrier in a Letica shuttle box (references LI 910 and LI 2700) during the 30 seconds which follow their introduction into the box. Products having an anxiolytic or tranquilizing activity suppress the conditioned avoidance response. Training: first day, 11 tests at intervals of 3 minutes. Electric shock in the paws at 30 seconds (5 mA, 0.1 s, 10 s). Second and third days: two daily tests, only with the selected rats {some of the grades of the first day (except the first test) >14}. Day of the test: groups formed by the selected rats. Oral administration of the product or vehicle 45 minutes before the beginning of the study."}}, "data": [{"compound": "Cc1nc(Cl)c(Cl)n1CCCCN1CCN(c2ncc(F)cn2)CC1.O=C(O)CC(O)(CC(=O)O)C(=O)O", "note": "[Example 3, 2-{4-[4-(4,5-dichloro-2-methylimidazol-1-yl)butyl]piperazin-1-yl}-5-fluoropyrimidine citrate]", "values": [{"measurement": "Effect on nausea caused by the movement (travel sickness) (in words)", "setting": "[1]; doses of 0.01 to 10 mg/kg i.p.", "value": "markedly inhibits the nausea caused by the movement (travel sickness)"}, {"measurement": "Number of episodes of nausea/vomiting", "setting": "[1]; 0.001 mg/kg i.p.", "value": "8.38 ± 1.41 (NS)"}, {"measurement": "Number of episodes of nausea/vomiting", "setting": "[1]; 0.01 mg/kg i.p.", "value": "0.33 ± 0.21 (*)"}, {"measurement": "Number of episodes of nausea/vomiting", "setting": "[1]; 0.1 mg/kg i.p.", "value": "2.17 ± 0.83 (*)"}, {"measurement": "Number of episodes of nausea/vomiting", "setting": "[1]; 1.0 mg/kg i.p.", "value": "0.33 ± 0.21 (*)"}, {"measurement": "Number of episodes of nausea/vomiting", "setting": "[1]; 10.0 mg/kg i.p.", "value": "0 ± 0 (*)"}, {"measurement": "Number of episodes of nausea/vomiting", "setting": "[2]; 0.001 mg/kg s.c.", "value": "7.4 ± 1.2 (NS)"}, {"measurement": "Number of episodes of nausea/vomiting", "setting": "[2]; 0.01 mg/kg s.c.", "value": "3.2 ± 0.6 (*)"}, {"measurement": "Number of episodes of nausea/vomiting", "setting": "[2]; 0.1 mg/kg s.c.", "value": "1.0 ± 0.2 (*)"}, {"measurement": "Number of episodes of nausea/vomiting", "setting": "[2]; 1 mg/kg s.c.", "value": "1.7 ± 0.3 (*)"}, {"measurement": "Effect on nausea induced by copper sulfate (in words)", "setting": "[2]; s.c.", "value": "capable of altering the nausea induced by copper sulfate"}, {"measurement": "ED50", "setting": "gastric acid secretion", "value": 1.9, "unit": "mg/kg"}, {"measurement": "Ki", "setting": "5HT1A serotonin receptor", "value": 19.4, "unit": "nM"}, {"measurement": "Number of episodes of nausea/vomiting", "setting": "[3]; 0.001 mg/kg s.c.", "value": "13.8 ± 2.4 (NS)"}, {"measurement": "Number of episodes of nausea/vomiting", "setting": "[3]; 0.01 mg/kg s.c.", "value": "6.5 ± 3.1 (*)"}, {"measurement": "Number of episodes of nausea/vomiting", "setting": "[3]; 0.1 mg/kg s.c.", "value": "3.1 ± 2.9 (*)"}, {"measurement": "Number of episodes of nausea/vomiting", "setting": "[3]; 1 mg/kg s.c.", "value": "3.0 ± 2.0 (*)"}, {"measurement": "Effect on nausea induced by cisplatin (in words)", "setting": "[3]; s.c.", "value": "opposing the nausea induced by cisplatin"}, {"measurement": "ED50", "setting": "[4]", "value": 9.7, "unit": "mg/kg"}]}]}
